Structures can show the parent of a compound that is named as a salt. Bounds are passed on as bounds.

From patent publication US11993604B2, “Substituted pyrazolo[4,3-H]quinazolines as protein kinase inhibitors” (SHENGKE PHARMACEUTICALS (JIANGSU) LTD., priority 2017, dated 2024) come the findings set out here.

One test addresses CDK6/cyclin D1 (Homo sapiens, UniProt Q00534). The test is described as follows: Biochemical kinase inhibition test, CDK6/cyclin D1 (similar method). Particulars: three-fold serial dilution from 10 μM; 10 μM ATP; read-out: CDK6/D1 (nM), enzyme inhibitory activity IC50. On the procedure: Potency determination of biochemical kinase inhibition test. Kinase activity test and IC50 determination. Firstly, 10 ng of recombinant CDK4/Cyclin D1 (Life Technologies PV4204) was diluted in kinase buffer (20 mM Tris pH 7.5, 10 mM MgCl2, 0.01% NP-40, 2 mM DTT), and was incubated with inhibitors at the indicated concentration at room temperature for 30 minutes. The kinase reaction was initiated by adding […] (1.5 μM) of recombinant retinoblastoma protein, 5 μM ATP and 10μ Ci γ-32P-ATP. The reaction was incubated at 30° C. for 20 minutes, and was terminated by adding 2× Laemmli sample buffer, heated at 95° C. for three minutes, and the resulting solution was dissolved with 12% acrylamide SDS-PAGE and autoradiographed. A densitometer (Bio-Rad) was used to quantify the corresponding phosphorylated substrate protein bands. The resulting density values were plotted as a function of the log drug concentration using Prism 4 Graphpad software. IC50 values were determined by plotting a non-linear regression curve with a variable slope.
The inhibitory activity of the compounds disclosed herein against CDK6/cyclin D1 was tested by a similar method.
The compounds were tested in a three-fold serial dilution from the starting concentration of 10 μM, over 10-fold of IC50. The control compound, staurosporine, was tested in a four-fold serial dilution from the starting concentration of 20 μM, over 10-fold of IC50. These reactions took place in the presence of 10 μM ATP.

In test [1] the target is T1, recombinant CDK4/Cyclin D1 (Homo sapiens, UniProt P11802).
T1 construct: purchased Life Technologies PV4204
T1 sequence (P11802 whole entry): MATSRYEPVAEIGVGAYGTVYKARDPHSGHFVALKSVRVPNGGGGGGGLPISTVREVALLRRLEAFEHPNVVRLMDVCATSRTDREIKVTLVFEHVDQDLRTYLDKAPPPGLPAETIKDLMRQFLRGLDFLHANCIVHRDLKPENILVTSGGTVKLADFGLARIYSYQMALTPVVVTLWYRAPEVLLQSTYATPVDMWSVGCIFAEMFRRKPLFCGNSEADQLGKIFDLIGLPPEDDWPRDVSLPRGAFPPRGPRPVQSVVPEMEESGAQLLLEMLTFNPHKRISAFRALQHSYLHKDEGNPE
T1 sequence (P24385 whole entry partner): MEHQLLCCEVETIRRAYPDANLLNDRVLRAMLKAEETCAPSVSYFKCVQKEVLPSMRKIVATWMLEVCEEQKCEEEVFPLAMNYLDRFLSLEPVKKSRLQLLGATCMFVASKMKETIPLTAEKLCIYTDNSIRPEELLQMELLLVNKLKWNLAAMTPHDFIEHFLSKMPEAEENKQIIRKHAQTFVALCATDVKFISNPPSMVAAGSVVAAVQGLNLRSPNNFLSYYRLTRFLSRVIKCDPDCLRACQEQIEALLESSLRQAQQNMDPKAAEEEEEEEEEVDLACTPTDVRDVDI
The test is described as follows: Biochemical kinase inhibition test, CDK4/Cyclin D1 (32P-ATP, retinoblastoma protein substrate). Particulars: three-fold serial dilution from 10 μM; 10 μM ATP; read-out: CDK4/D1 (nM), enzyme inhibitory activity IC50.

Chain of CDK6/cyclin D1 (Q00534 whole entry, species assumed): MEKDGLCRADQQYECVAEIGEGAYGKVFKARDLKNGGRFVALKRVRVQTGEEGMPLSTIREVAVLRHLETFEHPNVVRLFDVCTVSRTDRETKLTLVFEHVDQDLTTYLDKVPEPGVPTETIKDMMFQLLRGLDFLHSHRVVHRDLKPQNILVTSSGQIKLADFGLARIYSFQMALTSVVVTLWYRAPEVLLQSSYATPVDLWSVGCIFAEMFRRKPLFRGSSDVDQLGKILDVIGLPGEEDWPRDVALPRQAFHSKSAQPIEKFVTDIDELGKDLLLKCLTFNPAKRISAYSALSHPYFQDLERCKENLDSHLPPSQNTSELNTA
Chain of CDK6/cyclin D1 (P24385 whole entry partner, species assumed): as the sequence (P24385 whole entry partner) above

For `CC(C)n1ncc2ccc3cnc(Nc4ccc(N5CCNCC5)cn4)nc3c21` [Compound I-1, 1-isopropyl-N-(5-(piperazin-1-yl)pyridin-2-yl)-1H-pyrazolo[4,3-h]quinazolin-8-amine hydrochloride], the IC50 (at CDK6/cyclin D1; in test [1]) was below 1 nM each time.

Consider `Cc1nc(Nc2ncc3ccc4cnn(C(C)C)c4c3n2)ccc1N1CCNCC1` [Compound I-2], for which the IC50 (on CDK6/cyclin D1; in test [1]) was 1 to 5 nM throughout.

For `Cc1cc(Nc2ncc3ccc4cnn(C(C)C)c4c3n2)ncc1N1CCNCC1` [Compound I-3], the values for the IC50 (on CDK6/cyclin D1; in test [1]) were 10 to 20 nM and 5 to 10 nM, respectively.

As for `CC(C)n1ncc2ccc3cnc(Nc4ccc(N5CCN(C)CC5)cn4)nc3c21` [Compound I-4], the IC50 (at CDK6/cyclin D1; in test [1]) was 1 to 5 nM throughout.

With `Cc1cc(Nc2ncc3ccc4cnn(C(C)C)c4c3n2)ncc1N1CCN(C)CC1` [Compound I-5], the IC50 on CDK6/cyclin D1 was in the range of 10 to 20 nM; in test [1], 5 to 10 nM.

With `Cc1nc(Nc2ncc3ccc4cnn(C(C)C)c4c3n2)ccc1N1CCN(C)CC1` [Compound I-6], the IC50 on CDK6/cyclin D1 was below 1 nM; in test [1], 1 to 5 nM.

Regarding `CCN1CCN(c2ccc(Nc3ncc4ccc5cnn(C(C)C)c5c4n3)nc2)CC1` [Compound I-7], the IC50 (on CDK6/cyclin D1; in test [1]) was 1 to 5 nM each time.

Consider `CCN1CCN(c2cnc(Nc3ncc4ccc5cnn(C(C)C)c5c4n3)cc2C)CC1` [Compound I-8], for which the results for the IC50 (at CDK6/cyclin D1; in test [1]) were 10 to 20 nM and 5 to 10 nM, respectively.

For the compound `CCN1CCN(c2ccc(Nc3ncc4ccc5cnn(C(C)C)c5c4n3)nc2C)CC1` [Compound I-9], the values for the IC50 (at CDK6/cyclin D1; in test [1]) were below 1 nM and 1 to 5 nM, respectively.

In the case of `CC(C)n1ncc2ccc3cnc(Nc4cc(F)c(N5CCNCC5)cn4)nc3c21` [Compound I-10], the IC50 at CDK6/cyclin D1 lay in the range of 10 to 20 nM; in test [1], 5 to 10 nM.

Take `CC(C)n1ncc2ccc3cnc(Nc4ccc(N5CCNCC5)c(F)n4)nc3c21` [Compound I-11]: the figures for the IC50 (on CDK6/cyclin D1; in test [1]) were 5 to 10 nM and 1 to 5 nM, respectively.

With `CC(C)n1ncc2ccc3cnc(Nc4ccc(N5CCN[C@@H](C)C5)cn4)nc3c21` [Compound I-12], the IC50 (on CDK6/cyclin D1; in test [1]) was 5 to 10 nM throughout.

Turning to `CC(C)n1ncc2ccc3cnc(Nc4ccc(N5C[C@@H](C)N[C@@H](C)C5)cn4)nc3c21` [Compound I-13], the IC50 (at CDK6/cyclin D1; in test [1]) was 5 to 10 nM throughout.

For the compound `CC(C)n1ncc2ccc3cnc(Nc4ccc(N5CCNC(C)(C)C5)cn4)nc3c21` [Compound I-14], the IC50 (at CDK6/cyclin D1; in test [1]) was 10 to 20 nM in each case.

For `CC(C)n1ncc2ccc3cnc(Nc4ccc(N5CCOCC5)cn4)nc3c21` [Compound I-15], the IC50 (at CDK6/cyclin D1; in test [1]) was 1 to 5 nM in each case.

Turning to `CC1CN(c2ccc(Nc3ncc4ccc5cnn(C(C)C)c5c4n3)nc2)CCO1` (stereo not shown) [Compound I-16], the IC50 (at CDK6/cyclin D1; in test [1]) was 5 to 10 nM throughout.

`CC(C)n1ncc2ccc3cnc(Nc4ccc(N5C[C@@H](C)O[C@@H](C)C5)cn4)nc3c21` [Compound I-17]: the IC50 (on CDK6/cyclin D1; in test [1]) was 5 to 10 nM in each case.

For `Cc1nc(Nc2ncc3ccc4cnn(C(C)C)c4c3n2)ccc1N1CCOCC1` [Compound I-18], the results for the IC50 (at CDK6/cyclin D1; in test [1]) were below 1 nM and 1 to 5 nM, respectively.

As to `Cc1cc(Nc2ncc3ccc4cnn(C(C)C)c4c3n2)ncc1N1CCOCC1` [Compound I-19], the IC50 on CDK6/cyclin D1 lay within 10 to 20 nM; in test [1] it was 20 to 50 nM.

As for `Cc1cc(Nc2ncc3ccc4cnn(C(C)C)c4c3n2)ncc1N1CCOC(C)C1` (stereo not shown) [Compound I-20], the IC50 (on CDK6/cyclin D1; in test [1]) was 20 to 50 nM in each case.

With `Cc1nc(Nc2ncc3ccc4cnn(C(C)C)c4c3n2)ccc1N1CCOC(C)C1` (stereo not shown) [Compound I-21], the IC50 on CDK6/cyclin D1 lay in the range of 10 to 20 nM; in test [1], 5 to 10 nM.

Take `CC(C)n1ncc2ccc3cnc(Nc4ccc(N5CCCNCC5)cn4)nc3c21` [Compound I-22]: the IC50 (on CDK6/cyclin D1; in test [1]) was 10 to 20 nM each time.

Consider `CC(C)n1ncc2ccc3cnc(Nc4ccc(N5CCCCC5)cn4)nc3c21` [Compound I-23], for which the IC50 (at CDK6/cyclin D1; in test [1]) was 50 to 100 nM in each case.

`CC(C)n1ncc2ccc3cnc(Nc4ccc(N5CCC(N(C)C)CC5)cn4)nc3c21` [Compound I-24]: the IC50 (at CDK6/cyclin D1; in test [1]) was 20 to 50 nM each time.

On to `CC(C)n1ncc2ccc3cnc(Nc4ccc(N5CCC6(CC5)CNC6)cn4)nc3c21` [Compound I-25], for which the IC50 (at CDK6/cyclin D1; in test [1]) was 1 to 5 nM throughout.

As for `CC(C)n1ncc2ccc3cnc(Nc4ccc(N5CC6(CCNCC6)C5)cn4)nc3c21` [Compound I-26], the IC50 (at CDK6/cyclin D1; in test [1]) was 1 to 5 nM in each case.

As to `CC(C)n1ncc2ccc3cnc(Nc4ccc(N5CCC6(CCNCC6)C5)cn4)nc3c21` [Compound I-27], the IC50 (at CDK6/cyclin D1; in test [1]) was 20 to 50 nM in each case.

Turning to `CC(C)n1ncc2ccc3cnc(Nc4ccc(N5CCS(=O)(=O)CC5)cn4)nc3c21` [Compound I-28], the IC50 (on CDK6/cyclin D1; in test [1]) was 10 to 20 nM throughout.

In the case of `Cc1cc(Nc2ncc3ccc4cnn(C(C)C)c4c3n2)ncc1N1CCS(=O)(=O)CC1` [Compound I-29], the IC50 (on CDK6/cyclin D1; in test [1]) was 20 to 50 nM throughout.

`Cc1nc(Nc2ncc3ccc4cnn(C(C)C)c4c3n2)ccc1N1CCS(=O)(=O)CC1` [Compound I-30]: the IC50 (on CDK6/cyclin D1; in test [1]) was 10 to 20 nM each time.

For the compound `CC(C)n1ncc2ccc3cnc(Nc4ccc(C(=O)N5CCC(N6CCN(C)CC6)CC5)cn4)nc3c21` [Compound I-31], the IC50 (on CDK6/cyclin D1; in test [1]) was 50 to 100 nM throughout.

Turning to `COc1ccc2cc(Nc3ncc4ccc5cnn(C(C)C)c5c4n3)ccc2n1` [Compound I-32], the IC50 (on CDK6/cyclin D1; in test [1]) was 20 to 50 nM throughout.

With `CC(C)n1ncc2ccc3cnc(N4CCC[C@@H]4c4cccc(F)c4)nc3c21` [Compound I-33], the IC50 (on CDK6/cyclin D1; in test [1]) was 50 to 100 nM each time.

Regarding `CC(C)n1ncc2ccc3cnc(N4CCC[C@@H]4c4cc(F)ccc4F)nc3c21` [Compound I-34], the IC50 (at CDK6/cyclin D1; in test [1]) was 50 to 100 nM each time.

With `c1cc(Nc2ncc3ccc4cnn(C5CCCC5)c4c3n2)ncc1N1CCNCC1` [Compound I-35], the IC50 (on CDK6/cyclin D1; in test [1]) was 1 to 5 nM throughout.

Consider `Cc1cc(Nc2ncc3ccc4cnn(C5CCCC5)c4c3n2)ncc1N1CCNCC1` [Compound I-36], for which the IC50 (on CDK6/cyclin D1; in test [1]) was 10 to 20 nM throughout.

For the compound `Cc1nc(Nc2ncc3ccc4cnn(C5CCCC5)c4c3n2)ccc1N1CCNCC1` [Compound I-37], the IC50 at CDK6/cyclin D1 is below 1 nM; in test [1], 1 to 5 nM.

With `CN1CCN(c2ccc(Nc3ncc4ccc5cnn(C6CCCC6)c5c4n3)nc2)CC1` [Compound I-38], the IC50 on CDK6/cyclin D1 was in the range of 5 to 10 nM; in test [1] it was 1 to 5 nM.

In the case of `CCN1CCN(c2ccc(Nc3ncc4ccc5cnn(C6CCCC6)c5c4n3)nc2)CC1` [Compound I-39], the IC50 at CDK6/cyclin D1 was 1 to 5 nM; in test [1], below 1 nM.

Take `CCN1CCN(c2ccc(Nc3ncc4ccc5cnn(C6CCCC6)c5c4n3)nc2C)CC1` [Compound I-40]: the IC50 (on CDK6/cyclin D1; in test [1]) was 1 to 5 nM throughout.

As for `CCN1CCN(c2cnc(Nc3ncc4ccc5cnn(C6CCCC6)c5c4n3)cc2C)CC1` [Compound I-41], the IC50 (at CDK6/cyclin D1; in test [1]) was 10 to 20 nM each time.
